Data taken from US6337318B1, “Sustained GnRH peptide-release formulation” (Peptech, Ltd., priority 1996, dated 2002).

Assays:
[1] = in vitro release of deslorelin from the rods; assay type: physicochemical; settings: rods of 94% stearin, 5% deslorelin (on an active basis), 1% lecithin
Procedure: Typically, the formulation of the first aspect will release the peptide agonist or analogue, in vitro, into phosphate buffered saline (PBS: pH 7.3, prepared by dissolving 8.00 g of sodium chloride, 1.00 g di-sodium hydrogen phosphate anhydrous, 0.40 g sodium dihydrogen phosphate dihydrate (0.31 g if anydrous), and 0.05 g sodium azide in 1 litre of deionised water), at 37° C. at a rate of about 2-350 μg/day for at least 200 days but preferably for at least 300 days.
Stearin (supplied as free flowing beads of 1 mm or less in diameter made by Vandenberg Foods) and lecithin (supplied as a deep brown viscous syrup from R P Schearer) were hand mixed using a spatula in a small beaker. The deslorelin was then added and thoroughly mixed into the excipients. The mixed material was transferred to the barrel of a ram extruder that has a 1 mm nozzle attached and is equilibrated to 55° C. The ram extrusion pressure is 40 psi. The ram was attached and pressure applied until the product began to extrude. At this point the pressure was backed off and the product allowed to reach 55° C. The product was then extruded-3 g over a 30 second period. The resulting extrudate was allowed to cool and then broken up and re-extruded through a 1 mm nozzle. This step was included to ensure uniformity of content throughout the matrix. The 1 mm nozzle was then replaced with a 2.3 mm diameter nozzle. […]

[2] = system: male dogs; assay: testicular size in male dogs implanted with rods; assay type: in vivo, dog; settings: implanted rods of 94% stearin, 5% deslorelin, 1% lecithin
Procedure: (§1) Stearin (supplied as free flowing beads of 1 mm or less in diameter made by Vandenberg Foods) and lecithin (supplied as a deep brown viscous syrup from R P Schearer) were hand mixed using a spatula in a small beaker. The deslorelin was then added and thoroughly mixed into the excipients. The mixed material was transferred to the barrel of a ram extruder that has a 1 mm nozzle attached and is equilibrated to 55° C. The ram extrusion pressure is 40 psi. The ram was attached and pressure applied until the product began to extrude. At this point the pressure was backed off and the product allowed to reach 55° C. The product was then extruded-3 g over a 30 second period. The resulting extrudate was allowed to cool and then broken up and re-extruded through a 1 mm nozzle. This step was included to ensure uniformity of content throughout the matrix. The 1 mm nozzle was then replaced with a 2.3 mm diameter nozzle. The same product temperature equilibration procedure was conducted prior to extrusion. The product was then extruded and after cooling the long rods produced could be sectioned into lengths of the required weight.
(§2) The rods produced were implanted into male dogs using standard techniques.

[3] = system: plasma testosterone; assay: suppression of plasma testosterone levels in implanted dogs; assay type: in vivo, dog; settings: 5% deslorelin; for duration of suppression of testosterone levels: rods of 93% stearin, 2% lecithin, 0.5, 1 or 2 x 120 mg rod containing 6 mg deslorelin
Procedure: as §1, §2
Stearin beads (ADMUL PO 58 from Quest International Australasia Limited) and lecithin (Topcithin 300, Bronson & Jacobs, Australia) were hand mixed using a spatula in a small beaker. The deslorelin was then added and thoroughly mixed into the excipients. The material was transferred to the barrel of a ram extruder that has a 1 mm nozzle attached and is equilibrated to 55.8° C. The ram extrusion pressure is 40 psi. The ram was then attached and pressure applied until the product began to extrude. At this point the pressure was backed off and the product allowed to reach 55.8° C. The product was then extruded-3 g over a 30 second period. The resulting extrudate was allowed to cool and then broken up before re-extruding the mixed granulation through the 1 mm nozzle at 58.3° C. and into an injectable mould that generates a finished rod product that is 2.3 mm in diameter and approximately 25 mm long. […]

[4] = system: estradiol levels; settings: female patients; provided peptide delivered so as to maintain a constant minimum blood level; cited from earlier work
[5] = system: prostate cancer in rats; settings: controlled dose over 30 days vs equivalent or double daily doses of free peptide; cited from earlier work
[6] = system: advanced prostatic cancer; settings: monthly subcutaneous injections, advanced prostatic cancer patients; cited from earlier work

## CCNC(=O)[C@@H]1CCCN1C(=O)[C@H](CCCN=C(N)N)NC(=O)[C@H](CC(C)C)NC(=O)[C@@H](Cc1c[nH]c2ccccc12)NC(=O)[C@H](Cc1ccc(O)cc1)NC(=O)[C@H](CO)NC(=O)[C@H](Cc1c[nH]c2ccccc12)NC(=O)[C@H](Cc1cnc[nH]1)NC(=O)[C@@H]1CCC(=O)N1 [deslorelin, [6-D-tryptophan-9-(N-ethyl-L prolinamide)-10-deglycinamide]]
[1]
  duration of release of deslorelin from the rods in vitro: up to 250 days
[2]
  duration of continued decline in testicular size: at least 5 months
[3]; bitches
  duration of suppression of testosterone levels: at least 5 months
[3]; dogs (male)
  duration of suppression of testosterone levels: ≥ 12 months
[3]; male dogs, implanted rods of 94% stearin, 1% lecithin
  duration of suppression of plasma testosterone levels: at least 4 months
[4]
  suppression of estradiol levels: effective

## 5-oxo-L-prolyl-L-histidyl-L-tryptophyl-L-seryl-L-tyrosyl-D-tryptophyl-L-leucyl-L-arginyl-L-prolylglycinamide. [triptorelin]
[5]
  suppression of prostate tumour weight, microencapsulated form versus daily subcutaneous free peptide: more effective
  suppression of serum testosterone levels, microencapsulated form versus daily subcutaneous free peptide: more effective

## CC(C)C[C@H](NC(=O)[C@@H](COC(C)(C)C)NC(=O)[C@H](Cc1ccc(O)cc1)NC(=O)[C@H](CO)NC(=O)[C@H](Cc1c[nH]c2ccccc12)NC(=O)[C@H](Cc1cnc[nH]1)NC(=O)[C@@H]1CCC(=O)N1)C(=O)N[C@@H](CCCNC(=N)N)C(=O)N1CCC[C@H]1C(=O)NNC(N)=O [goserelin, 3-[5 oxo-L-prolyl-L-tryptophyl-L-seryl-L-tyrosyl-(3-O-tert-butyl)-D-seryl-L-leucyl-L-arginyl-L-prolyl] cabazamide acetate.]
[6]
  efficacy compared with orchiectomy: as effective as orchiectomy
  tolerability: well tolerated
